Laboratory results reported in ChEMBL document CHEMBL2046308, “Thiol-reactive compounds from garlic inhibit the epithelial sodium channel (ENaC)” (Bioorg Med Chem, 2012).
The source made the active and inactive calls. No cut-off for these calls is given here.

The compounds below were run against T1, Amiloride-sensitive sodium channel, ENaC (Homo sapiens) (UniProt P37088+P51168+P51170) (assay: Inhibition of human ENaC alpha-beta-gamma expressed in Xenopus laevis oocytes assessed as effect on transmembrane currents at 1 mM by two-electrode voltage-clamp technique). Settings: Oocyte.
Assay type: cell-based

Row | SMILES | inhibition
1 | C=CCSC[C@H](N)C(=O)O | inactive
2 | C=CCSSSCC=C | inactive
3 | C=CCSSCC=C | inactive
4 | C=CC[S@+]([O-])C[C@H](N)C(=O)O | inactive
5 | C=CCSCC=C | inactive

The compounds below were run against T1, Amiloride-sensitive sodium channel, ENaC (Homo sapiens) (assay: Inhibition of human ENaC alpha-beta-gamma expressed in Xenopus laevis oocytes assessed as effect on transmembrane currents at 100 uM by two-electrode voltage-clamp technique). Settings: Oocyte.
Assay type: cell-based

Row | SMILES | inhibition
6 | C=CCS[S+]([O-])CC=C (stereo unspecified) | 77%
